# Measurements taken from patent US11377425B1, “Small molecule modulators of IL-17” (LEO Pharma A/S, priority 2018, dated 2022).
# Molecular target: T1, human IL-17AA (Homo sapiens, UniProt Q16552)
# T1 construct: host or cells: HEK (human embryonic kidney) cells
# T1 sequence (Q16552 24-155): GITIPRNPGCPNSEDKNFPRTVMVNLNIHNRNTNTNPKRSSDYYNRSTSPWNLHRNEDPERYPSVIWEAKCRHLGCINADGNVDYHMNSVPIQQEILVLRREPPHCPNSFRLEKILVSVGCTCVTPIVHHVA
# Test: IL-8 release assay in human epithelial keratinocytes adult (HEKa)
# Format: cell-based
# Settings: HEKa cells, 3 ng/mL HEK-human IL-17AA + 10 ng/mL human TNFalpha; read-out: Rel EC50 IL-8 release assay
# Method in brief: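 IL-8 release, quantified by HTRF and normalized to controls, reports IL-17 signaling in HEKa cells treated with compound plus final 3 ng/mL IL-17AA (HEK-derived) and 10 ng/mL TNF-alpha for 68-72 h; TNF-alpha-only wells set 100% inhibition. Four-parameter logistic fits (r^2>0.9) give relative IC50 and Emax; PrestoBlue flags cytotoxicity.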
row,EC50,Compound
1,100 to 1000 nM,"CCn1nccc1C(=O)N[C@H](C(=O)Nc1ccc(-c2c(C)n[nH]c2C)cc1)C1CCC2(CC1)CC2 [Example 264, N-[(1S)-2-[4-(3,5-dimethyl-1H-pyrazol-4-yl)anilino]-2-oxo-1-spiro[2.5]octan-6-yl-ethyl]-2-ethyl-pyrazole-3-carboxamide]"
2,100 to 1000 nM,"Cc1n[nH]c(C)c1-c1ccc(NC(=O)C(NC(=O)c2ccnn2C(C)C)C2CCC(C)(C)C2)cc1 (stereo not shown) [Example 265, N-[1-(3,3-dimethylcyclopentyl)-2-[4-(3,5-dimethyl-1H-pyrazol-4-yl)anilino]-2-oxo-ethyl]-2-isopropyl-pyrazole-3-carboxamide]"
3,100 to 1000 nM,"Cc1n[nH]c(C)c1-c1ccc(NC(=O)C(NC(=O)c2ccnn2C)C2CCC(C)(C)C2)cc1 (stereo not shown) [Example 266, N-[1-(3,3-dimethylcyclopentyl)-2-[4-(3,5-dimethyl-1H-pyrazol-4-yl)anilino]-2-oxo-ethyl]-2-methyl-pyrazole-3-carboxamide]"
4,> 1000 nM,"Cc1n[nH]c(C)c1-c1ccc(NC(=O)[C@@H](NC(=O)c2ccnn2C)C2[C@H]3CCC[C@@H]23)cc1 (stereo partly drawn) [Example 267, N-[(1S)-1-[(1S,5R)-6-bicyclo[3.1.0]hexanyl]-2-[4-(3,5-dimethyl-1H-pyrazol-4-yl)anilino]-2-oxo-ethyl]-2-methyl-pyrazole-3-carboxamide]"
5,100 to 1000 nM,"CCn1nncc1C(=O)N[C@H](C(=O)Nc1ccc(-c2c(C)n[nH]c2C)cc1)C(C1CC1)C1CC1 [Example 270, N-[(1S)-1-(dicyclopropylmethyl)-2-[4-(3,5-dimethyl-1H-pyrazol-4-yl)anilino]-2-oxo-ethyl]-3-ethyl-triazole-4-carboxamide]"
6,< 100 nM,"CCn1nncc1C(=O)N[C@H](C(=O)Nc1ccc(-c2c(C)n[nH]c2C)cc1)C(C1CCC1)C1CCC1 [Example 271, N-[(1S)-1-[di(cyclobutyl)methyl]-2-[4-(3,5-dimethyl-1H-pyrazol-4-yl)anilino]-2-oxo-ethyl]-3-ethyl-triazole-4-carboxamide]"
7,< 100 nM,"Cc1n[nH]c(C)c1-c1ccc(NC(=O)[C@@H](NC(=O)c2cnnn2C)C(C2CCC2)C2CCC2)cc1 [Example 272, N-[(1S)-1-[di(cyclobutyl)methyl]-2-[4-(3,5-dimethyl-1H-pyrazol-4-yl)anilino]-2-oxo-ethyl]-3-methyl-triazole-4-carboxamide]"
8,< 100 nM,"Cc1n[nH]c(C)c1-c1ccc(NC(=O)[C@@H](NC(=O)c2cnnn2C(C)C)C(C2CCC2)C2CCC2)cc1 [Example 273, N-[(1S)-1-[di(cyclobutyl)methyl]-2-[4-(3,5-dimethyl-1H-pyrazol-4-yl)anilino]-2-oxo-ethyl]-3-isopropyl-triazole-4-carboxamide]"
9,< 100 nM,"Cc1nocc1C(=O)N[C@H](C(=O)Nc1ccc(-c2c(C)n[nH]c2C)cc1)C(C1CCC1)C1CCC1 [Example 274, N-[(1S)-1-[di(cyclobutyl)methyl]-2-[4-(3,5-dimethyl-1H-pyrazol-4-yl)anilino]-2-oxo-ethyl]-3-methyl-isoxazole-4-carboxamide]"
10,> 1000 nM,"Cc1n[nH]c(C)c1-c1ccc(NC(=O)[C@@H](NC(=O)c2nccn2C)C2CCCCC2)cc1 [Example 275, N-[(1S)-1-cyclohexyl-2-[4-(3,5-dimethyl-1H-pyrazol-4-yl)anilino]-2-oxo-ethyl]-1-methyl-imidazole-2-carboxamide]"
11,< 100 nM,"CCc1nocc1C(=O)N[C@H](C(=O)Nc1ccc(-c2c(C)n[nH]c2C)cc1)C1CCCCC1 [Example 276, N-[(1S)-1-cyclohexyl-2-[4-(3,5-dimethyl-1H-pyrazol-4-yl)anilino]-2-oxo-ethyl]-3-ethyl-isoxazole-4-carboxamide]"
12,< 100 nM,"Cc1n[nH]c(C)c1-c1ccc(NC(=O)[C@@H](NC(=O)c2conc2C(C)C)C2CCCCC2)cc1 [Example 277, N-[(1S)-1-cyclohexyl-2-[4-(3,5-dimethyl-1H-pyrazol-4-yl)anilino]-2-oxo-ethyl]-3-isopropyl-isoxazole-4-carboxamide]"
13,100 to 1000 nM,"Cc1n[nH]c(C)c1-c1ccc(NC(=O)[C@@H](NC(=O)c2ccnn2C)[C@@H]2CCc3c(F)cc(Br)cc32)cc1 [Example 278, N-[(1S)-1-[(1R)-6-bromo-4-fluoro-indan-1-yl]-2-[4 (3,5-dimethyl-1H-pyrazol-4-yl)anilino]-2-oxo-ethyl]-2-methyl-pyrazole-3-carboxamide]"
14,< 100 nM,"Cc1n[nH]c(C)c1-c1ccc(NC(=O)[C@@H](NC(=O)c2ccnn2C(C)C)[C@H]2CCOc3c(F)cc(F)cc32)cc1 [Example 279, N-[(1S)-1-[(4S)-6,8-difluorochroman-4-yl]-2-[4-(3,5-dimethyl-1H-pyrazol-4-yl)anilino]-2-oxo-ethyl]-2-isopropyl-pyrazole-3-carboxamide]"
15,100 to 1000 nM,Cc1n[nH]c(C)c1-c1ccc(NC(=O)[C@H](CC(C)(C)C)NC(=O)c2ccnn2C)cc1 [Example 281]
16,100 to 1000 nM,Cc1n[nH]c(C)c1-c1ccc(NC(=O)C(NC(=O)c2ccnn2C(C)C)C(C)C2CC2)cc1 (stereo not shown) [Example 282]

row,EC50,Compound
1,100 to 1000 nM,"Cc1n[nH]c(C)c1-c1ccc(NC(=O)[C@@H](NC(=O)c2ccnn2C(C)C)[C@@H](C)C2CC2)cc1 [Example 283, N-[(1S,2S)-2-cyclopropyl-1-[4-(3,5-dimethyl-1H-pyrazol-4-yl)phenyl]carbamoyl] propyl-2-isopropyl-pyrazole-3-carboxamide]"
2,100 to 1000 nM,"Cc1n[nH]c(C)c1-c1ccc(NC(=O)[C@@H](NC(=O)c2csc3cnccc23)C2CCCCC2)cc1 [Example 286, N-[(1S)-1-cyclohexyl-2-[4-(3,5-dimethyl-1H-pyrazol-4-yl)anilino]-2-oxo-ethyl]thieno[2,3-c]pyridine-3-carboxamide]"
3,< 100 nM,"Cc1n[nH]c(C)c1-c1ccc(NC(=O)[C@@H](NC(=O)c2ccnn2C(C)C)[C@H]2CCOc3c(F)cccc32)cc1 [Example 287, N-[(1S)-2-[4-(3,5-dimethyl-1H-pyrazol-4-yl)anilino]-1-[(4S)-8-fluorochroman-4-yl]-2-oxo-ethyl]-2-isopropyl-pyrazole-3-carboxamide]"
4,< 100 nM,"Cc1n[nH]c(C)c1-c1ccc(NC(=O)[C@@H](NC(=O)c2ccnn2C(C)C)[C@H]2CCOc3cc(F)ccc32)cc1 [Example 288, N-[(1S)-2-[4-(3,5-dimethyl-1H-pyrazol-4-yl)anilino]-1-[(4S)-7-fluorochroman-4-yl]-2-oxo-ethyl]-2-isopropyl-pyrazole-3-carboxamide]"
5,< 100 nM,"Cc1n[nH]c(C)c1-c1ccc(NC(=O)[C@@H](NC(=O)c2ccnn2C(C)C)[C@H]2CCOc3ccc(F)cc32)cc1 [Example 289, N-[(1S)-2-[4-(3,5-dimethyl-1H-pyrazol-4-N yl)anilino]-1-[(4S)-6-fluorochroman-4-yl]-2-oxo-ethyl]-2-isopropyl-pyrazole-3-carboxamide]"
6,< 100 nM,"CCc1nocc1C(=O)N[C@H](C(=O)Nc1ccc(-c2c(C)n[nH]c2C)cc1)C(C1CC1)C1CC1 [Example 290, N-[(1S)-1-(dicyclopropylmethyl)-2-[4-(3,5-dimethyl-1H-pyrazol-4-yl)anilino]-2-oxo-ethyl]-3-ethyl-isoxazole-4-carboxamide]"
7,< 100 nM,"Cc1n[nH]c(C)c1-c1ccc(NC(=O)[C@@H](NC(=O)c2conc2C(C)C)C(C2CC2)C2CC2)cc1 [Example 291, N-[(1S)-1-(dicyclopropylmethyl)-2-[4-(3,5-dimethyl-1H-pyrazol-4-yl)anilino]-2-oxo-ethyl]-3-isopropyl-isoxazole-4-carboxamide]"
8,< 100 nM,"Cc1n[nH]c(C)c1-c1ccc(NC(=O)[C@@H](NC(=O)c2cnnn2C(C)C)C(C2CC2)C2CC2)cc1 [Example 292, N-[(1S)-1-(dicyclopropylmethyl)-2-[4-(3,5-dimethyl-1H-pyrazol-4-yl)anilino]-2-oxo-ethyl]-3-isopropyl-triazole-4-carboxamide]"
9,100 to 1000 nM,"Cc1n[nH]c(C)c1-c1ccc(NC(=O)[C@@H](NC(=O)c2cnc3ccccn23)C2CCCCC2)cc1 [Example 293, N-[(1S)-1-cyclohexyl-2-[4-(3,5-dimethyl-1H-pyrazol-4-yl)anilino]-2-oxo-ethyl]imidazo[1,2-a]pyridine-3-carboxamide]"
10,100 to 1000 nM,"Cc1n[nH]c(C)c1-c1ccc(NC(=O)C(NC(=O)c2ccnn2C(C)C)C(C2CC(F)(F)C2)C2CC(F)(F)C2)cc1 (stereo not shown) [Example 295, N-[1-[bis(3,3-difluorocyclobutyl)methyl]-2-[4-(3,5-dimethyl-1H-pyrazol-4-yl)anilino]-2-oxo-ethyl]-2-isopropyl-pyrazole-3-carboxamide]"
11,> 1000 nM,"Cc1n[nH]c(C)c1-c1ccc(NC(=O)[C@@H](Cc2ccccc2)NC(=O)c2ccnn2C)cc1 [Example 297, N-[(1R)-1-benzyl-2-[4-(3,5-dimethyl-1H-pyrazol-4-yl)anilino]-2-oxo-ethyl]-2-methyl-pyrazole-3-carboxamide]"
12,> 1000 nM,Cc1n[nH]c(C)c1-c1ccc(NC(=O)[C@H](CC(C)C)NC(=O)c2ccnn2C)cc1 [Example 298]
13,> 1000 nM,"Cn1cncc1-c1ccc(NC(=O)[C@H](Cc2cc(C#N)ccc2Cl)NC(=O)OC(C)(C)C)cc1 [Example 307, tert-butyl N-[(1S)-1-[(2-chloro-5-cyano-phenyl)methyl]-2-[4-(3-methylimidazol-4-yl)anilino]-2-oxo-ethyl]carbamate]"
14,100 to 1000 nM,"Cc1ncn(C)c1-c1ccc(NC(=O)C(NC(=O)c2ccnn2C)C(C2CC2)C2CC2)cc1 (stereo not shown) [Example 332, N-[1-(dicyclopropylmethyl)-2-[4-(3,5-dimethylimidazol-4-yl)anilino]-2-oxo-ethyl]-2-methyl-pyrazole-3-carboxamide]"
15,> 1000 nM,"Cc1ncn(C)c1-c1ccc(NC(=O)[C@@H](NC(=O)c2ccnn2C)C2CCCC2)cc1 [Example 335, N-[(1S)-1-cyclopentyl-2-[4-(3,5-dimethylimidazol-4-yl)anilino]-2-oxo-ethyl]-2-methyl-pyrazole-3-carboxamide]"
